Source: patent US9693556B2, “Herbicidal pyridazinone derivatives” (SYNGENTA LIMITED, priority 2011, dated 2017)

Assays:
Format in all cases: in vivo
[1] = test system: Alopecurus myosuroides (ALOMY); test: Pre-emergence herbicidal glasshouse test on Alopecurus myosuroides; settings: pre-emergence; 1000 g/h; evaluated after 13 days
Method in brief: (§1)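 Read-out: percentage herbicidal damage 13 days after spraying, given on a five-point scale (5=80-100%, 4=60-79%, 3=40-59%, 2=20-39%, 1=0-19%). Pots of standard soil; application at 1000 g/h, one day post-sowing for pre-emergence, eight days for post-emergence.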

Setaria faberi (SETFA) [2] = test: Pre-emergence herbicidal glasshouse test on Setaria faberi; settings: pre-emergence; 1000 g/h; evaluated after 13 days
Method in brief: as §1

[3] = test system: Echinochloa crus-galli (ECHCG); test: Pre-emergence herbicidal glasshouse test on Echinochloa crus-galli; settings: pre-emergence; 1000 g/h; evaluated after 13 days
Method in brief: as §1

Solanum nigrum (SOLNI) [4] = test: Pre-emergence herbicidal glasshouse test on Solanum nigrum; settings: pre-emergence; 1000 g/h; evaluated after 13 days
Method in brief: as §1

[5] = test system: Amaranthus retoflexus (AMARE); test: Pre-emergence herbicidal glasshouse test on Amaranthus retoflexus; settings: pre-emergence; 1000 g/h; evaluated after 13 days
Method in brief: as §1

[6] = test system: Ipomoea hederacea (IPOHE); test: Pre-emergence herbicidal glasshouse test on Ipomoea hederacea; settings: pre-emergence; 1000 g/h; evaluated after 13 days
Method in brief: as §1

[7] = test system: Alopecurus myosuroides (ALOMY); test: Post-emergence herbicidal glasshouse test on Alopecurus myosuroides; settings: post-emergence; 1000 g/h; evaluated after 13 days
Method in brief: as §1

Setaria faberi (SETFA) [8] = test: Post-emergence herbicidal glasshouse test on Setaria faberi; settings: post-emergence; 1000 g/h; evaluated after 13 days
Method in brief: as §1

[9] = test system: Echinochloa crus-galli (ECHCG); test: Post-emergence herbicidal glasshouse test on Echinochloa crus-galli; settings: post-emergence; 1000 g/h; evaluated after 13 days
Method in brief: as §1

Solanum nigrum (SOLNI) [10] = test: Post-emergence herbicidal glasshouse test on Solanum nigrum; settings: post-emergence; 1000 g/h; evaluated after 13 days
Method in brief: as §1

[11] = test system: Amaranthus retoflexus (AMARE); test: Post-emergence herbicidal glasshouse test on Amaranthus retoflexus; settings: post-emergence; 1000 g/h; evaluated after 13 days
Method in brief: as §1

[12] = test system: Ipomoea hederacea (IPOHE); test: Post-emergence herbicidal glasshouse test on Ipomoea hederacea; settings: post-emergence; 1000 g/h; evaluated after 13 days
Method in brief: as §1

Compound	PRE Application ALOMY herbicidal damage (five point scale) [1]	PRE Application SETFA herbicidal damage (five point scale) (Setaria faberi (SETFA) [2])	PRE Application ECHCG herbicidal damage (five point scale) [3]	PRE Application SOLNI herbicidal damage (five point scale) (Solanum nigrum (SOLNI) [4])	PRE Application AMARE herbicidal damage (five point scale) [5]	PRE Application IPOHE herbicidal damage (five point scale) [6]	POST Application ALOMY herbicidal damage (five point scale) [7]	POST Application SETFA herbicidal damage (five point scale) (Setaria faberi (SETFA) [8])	POST Application ECHCG herbicidal damage (five point scale) [9]	POST Application SOLNI herbicidal damage (five point scale) (Solanum nigrum (SOLNI) [10])	POST Application AMARE herbicidal damage (five point scale) [11]	POST Application IPOHE herbicidal damage (five point scale) [12]
Cn1ncc(-n2ccc(C(F)(F)F)c(-c3ccc(C#N)cc3)c2=O)c(O)c1=O [Compound 7.031]	5 (5=80-100% damage)	5 (5=80-100% damage)	5 (5=80-100% damage)	5 (5=80-100% damage)	5 (5=80-100% damage)	5 (5=80-100% damage)	5 (5=80-100% damage)	5 (5=80-100% damage)	5 (5=80-100% damage)	5 (5=80-100% damage)	5 (5=80-100% damage)	5 (5=80-100% damage)
Cn1ncc(-c2ccc(C(F)(F)F)cc2C(F)(F)F)c(O)c1=O [Compound 1.033]	1 (1=0-19% damage)	1 (1=0-19% damage)	2 (2=20-39% damage)	5 (5=80-100% damage)	5 (5=80-100% damage)	1 (1=0-19% damage)	2 (2=20-39% damage)	1 (1=0-19% damage)	2 (2=20-39% damage)	5 (5=80-100% damage)	5 (5=80-100% damage)	5 (5=80-100% damage)
CCS(=O)(=O)c1ccccc1-c1cnn(COC)c(=O)c1O [Compound 2.004]	5 (5=80-100% damage)	5 (5=80-100% damage)	5 (5=80-100% damage)	5 (5=80-100% damage)	5 (5=80-100% damage)	4 (4=60-79% damage)	3 (3=40-59% damage)	5 (5=80-100% damage)	5 (5=80-100% damage)	5 (5=80-100% damage)	5 (5=80-100% damage)	5 (5=80-100% damage)
Cn1ncc(-c2ccc(F)cc2[S+](C)[O-])c(O)c1=O (stereo not drawn) [Compound 1.057]	5 (5=80-100% damage)	5 (5=80-100% damage)	5 (5=80-100% damage)	5 (5=80-100% damage)	5 (5=80-100% damage)	2 (2=20-39% damage)	5 (5=80-100% damage)	5 (5=80-100% damage)	5 (5=80-100% damage)	5 (5=80-100% damage)	5 (5=80-100% damage)	5 (5=80-100% damage)
Cn1ncc(-c2ccc(Cl)cc2Cl)c(O)c1=O [Compound 1.077]	1 (1=0-19% damage)	1 (1=0-19% damage)	1 (1=0-19% damage)	3 (3=40-59% damage)	3 (3=40-59% damage)	1 (1=0-19% damage)	1 (1=0-19% damage)	1 (1=0-19% damage)	1 (1=0-19% damage)	2 (2=20-39% damage)	4 (4=60-79% damage)	2 (2=20-39% damage)
CCS(=O)(=O)c1nn(C)c(=O)c(O)c1-c1ccc(S(C)(=O)=O)c(C2=NOCC2)c1C [Compound 2.021]	1 (1=0-19% damage)	1 (1=0-19% damage)	1 (1=0-19% damage)	1 (1=0-19% damage)	5 (5=80-100% damage)	1 (1=0-19% damage)	1 (1=0-19% damage)	2 (2=20-39% damage)	5 (5=80-100% damage)	5 (5=80-100% damage)	5 (5=80-100% damage)	5 (5=80-100% damage)
Cn1ncc(-c2ccccc2C#N)c(O)c1=O [Compound 1.022]	1 (1=0-19% damage)	1 (1=0-19% damage)	1 (1=0-19% damage)	1 (1=0-19% damage)	1 (1=0-19% damage)	1 (1=0-19% damage)	1 (1=0-19% damage)	1 (1=0-19% damage)	1 (1=0-19% damage)	3 (3=40-59% damage)	2 (2=20-39% damage)	1 (1=0-19% damage)
Cc1nc(C(C)F)ccc1-c1cnn(C)c(=O)c1O (stereo not drawn) [Compound 1.068]	2 (2=20-39% damage)	2 (2=20-39% damage)	5 (5=80-100% damage)	4 (4=60-79% damage)	4 (4=60-79% damage)	3 (3=40-59% damage)	3 (3=40-59% damage)	3 (3=40-59% damage)	5 (5=80-100% damage)	5 (5=80-100% damage)	5 (5=80-100% damage)	5 (5=80-100% damage)
Cn1ncc(-c2ccc(COCC(F)(F)F)cc2S(C)(=O)=O)c(O)c1=O [Compound 2.053]	3 (3=40-59% damage)	2 (2=20-39% damage)	5 (5=80-100% damage)	5 (5=80-100% damage)	5 (5=80-100% damage)	1 (1=0-19% damage)	3 (3=40-59% damage)	2 (2=20-39% damage)	3 (3=40-59% damage)	5 (5=80-100% damage)	5 (5=80-100% damage)	5 (5=80-100% damage)
Cn1ncc(-c2cccn(-c3cccc(F)c3)c2=O)c(O)c1=O [Compound 1.148]	1 (1=0-19% damage)	1 (1=0-19% damage)	1 (1=0-19% damage)	1 (1=0-19% damage)	1 (1=0-19% damage)	2 (2=20-39% damage)	1 (1=0-19% damage)	4 (4=60-79% damage)	2 (2=20-39% damage)	3 (3=40-59% damage)	2 (2=20-39% damage)	3 (3=40-59% damage)
